From ChEMBL document CHEMBL1148616, “Synthesis and structure-activity relationships of novel poly(ADP-ribose) polymerase-1 inhibitors” (Bioorg Med Chem Lett, 2006)

The compounds below were run against Poly [ADP-ribose] polymerase 1 (Homo sapiens, UniProt P09874).
Sequence of Poly [ADP-ribose] polymerase 1 (P09874 whole entry): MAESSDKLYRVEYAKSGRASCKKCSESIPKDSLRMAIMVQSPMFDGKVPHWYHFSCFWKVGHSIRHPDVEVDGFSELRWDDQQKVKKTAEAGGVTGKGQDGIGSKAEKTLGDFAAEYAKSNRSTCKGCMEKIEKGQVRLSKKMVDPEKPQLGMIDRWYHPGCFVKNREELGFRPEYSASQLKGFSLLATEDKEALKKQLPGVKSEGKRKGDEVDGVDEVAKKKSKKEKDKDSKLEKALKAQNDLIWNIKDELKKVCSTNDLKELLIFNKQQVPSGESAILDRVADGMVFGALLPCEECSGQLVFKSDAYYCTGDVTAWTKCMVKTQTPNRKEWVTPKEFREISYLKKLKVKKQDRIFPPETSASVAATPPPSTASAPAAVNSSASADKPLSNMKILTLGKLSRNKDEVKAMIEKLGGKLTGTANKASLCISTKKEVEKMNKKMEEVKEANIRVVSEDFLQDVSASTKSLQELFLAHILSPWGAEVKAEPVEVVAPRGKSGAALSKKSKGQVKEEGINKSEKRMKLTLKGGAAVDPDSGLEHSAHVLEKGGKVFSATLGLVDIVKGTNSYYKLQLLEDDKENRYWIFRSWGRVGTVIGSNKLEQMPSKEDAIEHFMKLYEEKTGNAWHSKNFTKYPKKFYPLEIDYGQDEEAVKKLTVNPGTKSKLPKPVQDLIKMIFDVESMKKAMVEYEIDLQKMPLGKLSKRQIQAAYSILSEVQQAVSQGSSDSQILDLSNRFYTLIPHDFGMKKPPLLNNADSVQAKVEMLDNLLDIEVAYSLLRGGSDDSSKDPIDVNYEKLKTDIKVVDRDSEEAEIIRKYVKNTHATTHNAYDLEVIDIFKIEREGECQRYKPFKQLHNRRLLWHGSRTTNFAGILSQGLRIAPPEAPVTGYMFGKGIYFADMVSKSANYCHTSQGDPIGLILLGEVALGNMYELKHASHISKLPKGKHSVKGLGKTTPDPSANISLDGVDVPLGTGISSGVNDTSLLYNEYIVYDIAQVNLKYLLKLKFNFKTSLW
Description: Inhibitory activity against human PARP1 expressed in PC12 cells

IC50	Structure (SMILES)
> 10 µM	CCCc1c2c(c3c([nH]c4ccccc43)c1CC)C(=O)NC2=O
> 10 µM	O=C1NC(=O)c2c1c1ccccc1c1[nH]c3ccccc3c21
> 10 µM	O=C1NC(=O)c2c1c1c(c3oc4ccccc4c23)CCC1
0.026 µM	Nc1ccc2c3c(cccc13)C(=O)NC2=O
> 10 µM	O=C1NC(=O)c2c1c1c(c3sc4ccccc4c23)CCC1
